Format in all cases: cell-based, human
In assay [1] the test system is Target C. Put plainly: HiBiT protein abundance assay, Target C (Promega Nano-Glo HiBiT Lytic Detection System, knock-in K562 cell line). Particulars: Homo sapiens, K562, 24 h, HiBiT K562 cell line, 24 hours, top dose 10 μM; read-out: Effect on protein abundance, Target C (IC50 category). A digest of the protocol: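 Knock-in K562 cells carrying HiBiT-tagged Target C, 10,000 per well, treated 24 h at 37 °C with 10-point threefold dilutions (top 10 μM final, ≤0.25% DMSO). Lytic HiBiT luminescence read; response normalised to unmodified K562 and DMSO controls, four-parameter fit interpolated at 50% for IC50.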

Assay [2] deals with Target C. The experiment in a line: RT-qPCR splicing assay panel, Target C canonical junction (CJ) mRNA. The settings on record: Homo sapiens; Table 5 panel; canonical junction qPCR; compound concentration having 50% response in CJ decrease; read-out: Target C IC50 (decrease in CJ mRNA levels). A digest of the protocol:
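A673 or K562 cells were treated for 24 h at 37 °C with compound in 11-point 3-fold dilution (top 10 uM final, DMSO ≤0.25%). Lysates then went to one-step RT-qPCR measuring canonical-junction mRNA, normalized to GAPDH, GUSB or PPIA.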
On the technique in general: Quantitative PCR measures a nucleic acid by following its amplification.

For another assay, the system named is MYB. The experiment in a line: HiBiT protein abundance assay, MYB HiBiT K562 cell line. The settings on record: HiBiT K562 cell line, 24 hours, top dose 10 μM; read-out: Effect on protein abundance, MYB (IC50 category). A digest of the protocol:
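K562 knock-in lines with endogenous HiBiT-tagged target, 10,000 cells/well in IMDM + FBS, treated 24 h at 37° C with 10-point 3-fold dilutions (top 10 μM final; DMSO ≤0.25%). Lytic Nano-Glo HiBiT luminescence normalized to untagged K562 baseline and DMSO controls; IC50 = concentration giving 50% abundance via four-parameter fit.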
For orientation: With HiBiT, luminescence reflects the tagged protein that the partner subunit can reach.

Broadly, the IC50 is the midpoint of a concentration-inhibition curve. Regarding `Cc1cn2cc(-c3cc(O)c4c(=O)n(C5CCNCC5)cnc4c3)cc(F)c2n1` [Compound 587, 7-{8-fluoro-2-methylimidazo[1,2-a]pyridin-6-yl}-5-hydroxy-3-(piperidin-4-yl)quinazolin-4-one], the IC50 is 100 to 1000 nM in the assay with Target C [1], 100 to 1000 nM in the assay on Target C [2] and < 100 nM with MYB.

As to `Cc1cn2cc(-c3cc(F)c4c(=O)n(C5CCNCC5)cnc4c3)cc(C#N)c2n1` [Compound 588], the IC50 in the assay with Target C [1] lay within 1000 to 10000 nM; in the assay on Target C [2], 100 to 1000 nM; in the assay with MYB, 100 to 1000 nM.

For the compound `Cc1cn2nc(-c3cc(F)c4c(=O)n(C5CCNC5)cnc4c3)cc(C)c2n1` (stereo not drawn) [Compound 589, 7-{2,8-dimethylimidazo[1,2-b]pyridazin-6-yl}-5-fluoro-3-(pyrrolidin-3-yl)quinazolin-4-one], the 50% inhibitory concentration (IC50) was > 10000 nM in the assay on Target C [1], > 10000 nM with Target C [2] and 1000 to 10000 nM with MYB.

As for `Cc1cn2nc(-c3cc(F)c4c(=O)n([C@@H]5CCN(C)C6(CC6)C5)ncc4c3)cc(C)c2n1` [Compound 637], the IC50 in the assay on Target C [1], in the assay with Target C [2] and in the assay on MYB was < 100 nM each time.

Regarding `Cc1cn2nc(-c3cc(F)c4c(=O)n([C@H]5CCN(C)C6(CC6)C5)ncc4c3)cc(C)c2n1` [Compound 638], the values for the concentration for half-maximal inhibition (IC50) with Target C [1], with Target C [2] and with MYB were < 100 nM, < 100 nM and 100 to 1000 nM, respectively.

For the compound `Cc1cn2nc(-c3cc4ccn([C@@H]5CCNC5)c(=O)c4cc3O)cc(C)c2n1` [Compound 640, 6-(2,8-dimethylimidazo[1,2-b]pyridazin-6-yl)-7-hydroxy-2-[(3R)-pyrrolidin-3-yl]isoquinolin-1-one], the IC50 is 1000 to 10000 nM in the assay on Target C [1], 1000 to 10000 nM with Target C [2] and < 100 nM with MYB.

For `Cc1cn2nc(-c3cc4ccn([C@H]5CCNC5)c(=O)c4cc3O)cc(C)c2n1` [Compound 641, 6-(2,8-dimethylimidazo[1,2-b]pyridazin-6-yl)-7-hydroxy-2-[(3S)-pyrrolidin-3-yl]isoquinolin-1-one], the 50% inhibitory concentration (IC50) in the assay on Target C [1] was 100 to 1000 nM; with Target C [2] it was 1000 to 10000 nM; with MYB, < 100 nM.

Take `Cc1cn2cc(-c3cc(F)c4c(=O)n([C@@H]5C[C@@H](C)N[C@@H](C)C5)ccc4c3)cc(F)c2n1` [Compound 642, 2-[(2S,6R)-2,6-dimethyl-4-piperidyl]-8-fluoro-6-(8-fluoro-2-methyl-imidazo[1,2-a]pyridin-6-yl)isoquinolin-1-one]: the IC50 in the assay with Target C [1] was 1000 to 10000 nM; in the assay on Target C [2] it was 1000 to 10000 nM; with MYB, 100 to 1000 nM.

For the compound `Cc1cn2cc(-c3cc(F)c4c(=O)n([C@H]5CNC[C@@H]5F)ccc4c3)cc(F)c2n1` [Compound 644], the IC50 is > 10000 nM with Target C [1], > 10000 nM in the assay with Target C [2] and 1000 to 10000 nM in the assay with MYB.

Turning to `Cc1cn2nc(-c3cc(N)c4c(=O)n([C@H]5CCNC5)ccc4c3)cc(C)c2n1` [Compound 645, 8-amino-6-(2,8-dimethylimidazo[1,2-b]pyridazin-6-yl)-2-[(3S)-pyrrolidin-3-yl]isoquinolin-1-one], the IC50 is > 10000 nM with Target C [1], > 10000 nM in the assay on Target C [2] and 1000 to 10000 nM in the assay on MYB.

For `Cc1cn2nc(-c3cc(N)c4c(=O)n([C@@H]5CCNC5)ccc4c3)cc(C)c2n1` [Compound 646, 8-amino-6-(2,8-dimethylimidazo[1,2-b]pyridazin-6-yl)-2-[(3R)-pyrrolidin-3-yl]isoquinolin-1-one], the figures for the IC50 with Target C [1], in the assay with Target C [2] and in the assay with MYB were > 10000 nM, > 10000 nM and 1000 to 10000 nM, respectively.

On to `CNc1cc(-c2cc(C)c3nc(C)cn3n2)cc2ccn([C@H]3CCNC3)c(=O)c12` [Compound 647, 6-(2,8-dimethylimidazo[1,2-b]pyridazin-6-yl)-8-(methylamino)-2-[(3S)-pyrrolidin-3-yl]isoquinolin-1-one], for which the IC50 in the assay with Target C [1] is > 10000 nM; with Target C [2] it was > 10000 nM; in the assay with MYB it was 1000 to 10000 nM.

These data come from patent US20250332173A1, “COMPOUNDS AND METHODS FOR MODULATING NUCLEIC ACID SPLICING” (REMIX THERAPEUTICS INC., priority 2021, published 2025).
